# Measurements: article PMC9221546, “New Phenylglycinamide Derivatives with Hybrid Structure as Candidates for New Broad-Spectrum Anticonvulsants” (Cells, 2022)
# Entries after “also recorded” stand apart in the source; their conditions may differ. Where two headings read alike, the source gives them in different places.
# Legend:
# TRPV1 (VR1) (h) = target: T1, TRPV1 (VR1) (h) (Homo sapiens, UniProt Q8NER1); test: TRPV1 (VR1) (h) antagonist effect functional assay; assay type: cell-based; settings: human recombinant CHO cells
# T1 construct: host or cells: CHO
# T1 sequence (Q8NER1 whole entry): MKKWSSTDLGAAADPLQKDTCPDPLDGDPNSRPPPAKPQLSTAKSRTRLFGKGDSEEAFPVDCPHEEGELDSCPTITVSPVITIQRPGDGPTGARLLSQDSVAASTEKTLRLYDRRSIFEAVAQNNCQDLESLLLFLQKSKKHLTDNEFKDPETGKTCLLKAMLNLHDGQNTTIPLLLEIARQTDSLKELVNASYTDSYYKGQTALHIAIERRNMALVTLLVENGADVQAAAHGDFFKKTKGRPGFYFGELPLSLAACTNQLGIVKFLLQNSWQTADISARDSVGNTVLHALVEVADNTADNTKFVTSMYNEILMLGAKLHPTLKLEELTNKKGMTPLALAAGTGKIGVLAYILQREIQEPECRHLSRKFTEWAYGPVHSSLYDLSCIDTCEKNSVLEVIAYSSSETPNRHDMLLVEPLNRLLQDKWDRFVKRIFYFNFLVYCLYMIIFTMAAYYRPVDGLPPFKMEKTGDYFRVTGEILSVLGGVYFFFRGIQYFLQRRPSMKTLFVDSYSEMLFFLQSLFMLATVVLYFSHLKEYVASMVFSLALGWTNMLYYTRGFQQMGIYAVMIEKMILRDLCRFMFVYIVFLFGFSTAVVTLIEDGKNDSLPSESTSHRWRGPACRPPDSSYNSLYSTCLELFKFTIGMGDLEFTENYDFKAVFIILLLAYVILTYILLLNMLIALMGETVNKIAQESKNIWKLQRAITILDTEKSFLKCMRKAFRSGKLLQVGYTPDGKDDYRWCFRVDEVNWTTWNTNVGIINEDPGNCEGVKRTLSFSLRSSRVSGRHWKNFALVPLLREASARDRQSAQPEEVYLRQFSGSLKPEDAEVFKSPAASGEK
# [1] = system: 6 Hz (32 mA) seizures in mice; test: 6 Hz (32 mA) psychomotor seizure model; assay type: in vivo; settings: Mus musculus, ip; for responders at 100 mg/kg: 100 mg/kg i.p., 0.5 h; for ED50: mice, pretreatment time 0.5 h, (95% confidence limits)
# How it was run: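 Adult male Albino Swiss mice (22–26 g), compounds suspended in 1% aqueous Tween 80, single i.p. injection, tested 0.5 h post-dose. Screening at 100 mg/kg with four mice per group; ED50 from 3–4 groups of eight. PI = TD50 (chimney test) / ED50.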
# [2] = target: T2, Cav1.2 (h) calcium ion channel (Homo sapiens, UniProt Q13936); test: Cav1.2 (h) calcium ion channel cell-based antagonist calcium flux assay; settings: HEK293, human recombinant HEK-293 cell, read-out: % Inhibition of control agonist response, Cav1.2 calcium flux
# T2 construct: Eurofins
# T2 sequence (Q13936 whole entry): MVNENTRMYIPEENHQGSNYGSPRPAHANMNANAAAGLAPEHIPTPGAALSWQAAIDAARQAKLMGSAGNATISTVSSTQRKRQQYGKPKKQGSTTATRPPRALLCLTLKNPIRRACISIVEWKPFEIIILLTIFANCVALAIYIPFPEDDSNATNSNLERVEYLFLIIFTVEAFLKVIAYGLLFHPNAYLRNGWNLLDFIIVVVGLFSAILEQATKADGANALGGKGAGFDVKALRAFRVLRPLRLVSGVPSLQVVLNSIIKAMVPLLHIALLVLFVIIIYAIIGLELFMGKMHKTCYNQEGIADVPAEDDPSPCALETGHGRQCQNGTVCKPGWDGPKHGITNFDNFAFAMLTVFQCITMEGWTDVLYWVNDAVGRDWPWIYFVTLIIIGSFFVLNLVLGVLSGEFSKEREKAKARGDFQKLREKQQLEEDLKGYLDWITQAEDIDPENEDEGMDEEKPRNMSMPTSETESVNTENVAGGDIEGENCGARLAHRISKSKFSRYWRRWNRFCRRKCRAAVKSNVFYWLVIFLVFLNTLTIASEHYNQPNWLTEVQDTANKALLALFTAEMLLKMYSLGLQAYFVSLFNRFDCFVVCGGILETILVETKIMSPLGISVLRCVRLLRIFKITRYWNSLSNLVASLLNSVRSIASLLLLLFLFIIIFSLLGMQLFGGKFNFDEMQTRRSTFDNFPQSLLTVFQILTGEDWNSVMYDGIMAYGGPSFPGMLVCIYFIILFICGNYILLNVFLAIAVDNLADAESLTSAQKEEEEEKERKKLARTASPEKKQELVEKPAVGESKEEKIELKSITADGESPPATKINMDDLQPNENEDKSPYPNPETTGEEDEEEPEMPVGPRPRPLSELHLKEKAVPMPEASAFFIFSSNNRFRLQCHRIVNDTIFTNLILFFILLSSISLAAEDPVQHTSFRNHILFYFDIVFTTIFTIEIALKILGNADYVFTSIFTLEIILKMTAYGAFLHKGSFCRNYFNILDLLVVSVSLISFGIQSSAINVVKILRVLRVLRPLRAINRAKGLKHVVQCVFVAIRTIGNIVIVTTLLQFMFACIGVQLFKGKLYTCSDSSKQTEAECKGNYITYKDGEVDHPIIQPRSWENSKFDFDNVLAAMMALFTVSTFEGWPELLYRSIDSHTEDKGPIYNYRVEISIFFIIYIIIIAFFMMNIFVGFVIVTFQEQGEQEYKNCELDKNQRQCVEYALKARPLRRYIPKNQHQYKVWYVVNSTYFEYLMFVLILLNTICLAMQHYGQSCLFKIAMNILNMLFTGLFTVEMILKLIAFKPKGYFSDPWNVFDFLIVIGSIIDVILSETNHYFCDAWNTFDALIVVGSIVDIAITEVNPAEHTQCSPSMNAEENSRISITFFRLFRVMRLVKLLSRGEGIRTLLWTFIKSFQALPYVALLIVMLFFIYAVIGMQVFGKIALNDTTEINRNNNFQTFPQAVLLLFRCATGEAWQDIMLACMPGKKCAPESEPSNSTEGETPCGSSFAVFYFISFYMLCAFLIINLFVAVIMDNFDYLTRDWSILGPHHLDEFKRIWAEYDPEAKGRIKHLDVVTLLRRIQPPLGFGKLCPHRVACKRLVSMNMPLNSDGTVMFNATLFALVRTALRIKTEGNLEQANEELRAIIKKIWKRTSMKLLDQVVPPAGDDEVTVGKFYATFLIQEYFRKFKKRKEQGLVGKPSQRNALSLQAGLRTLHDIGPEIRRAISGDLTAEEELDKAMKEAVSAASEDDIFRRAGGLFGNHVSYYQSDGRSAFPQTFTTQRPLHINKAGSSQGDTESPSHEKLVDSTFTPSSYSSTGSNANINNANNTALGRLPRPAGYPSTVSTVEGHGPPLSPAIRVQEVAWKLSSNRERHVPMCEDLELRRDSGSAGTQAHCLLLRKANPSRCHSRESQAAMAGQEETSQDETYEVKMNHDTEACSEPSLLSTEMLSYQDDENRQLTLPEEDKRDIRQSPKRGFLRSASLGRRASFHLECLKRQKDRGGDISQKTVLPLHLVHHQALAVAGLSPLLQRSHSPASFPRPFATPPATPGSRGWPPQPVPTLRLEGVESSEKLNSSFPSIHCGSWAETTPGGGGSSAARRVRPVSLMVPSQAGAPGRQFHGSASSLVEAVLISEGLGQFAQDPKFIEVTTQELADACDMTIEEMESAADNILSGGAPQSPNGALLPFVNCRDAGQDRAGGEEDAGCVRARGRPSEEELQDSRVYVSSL
# T2 sequence (Q08289 whole entry partner): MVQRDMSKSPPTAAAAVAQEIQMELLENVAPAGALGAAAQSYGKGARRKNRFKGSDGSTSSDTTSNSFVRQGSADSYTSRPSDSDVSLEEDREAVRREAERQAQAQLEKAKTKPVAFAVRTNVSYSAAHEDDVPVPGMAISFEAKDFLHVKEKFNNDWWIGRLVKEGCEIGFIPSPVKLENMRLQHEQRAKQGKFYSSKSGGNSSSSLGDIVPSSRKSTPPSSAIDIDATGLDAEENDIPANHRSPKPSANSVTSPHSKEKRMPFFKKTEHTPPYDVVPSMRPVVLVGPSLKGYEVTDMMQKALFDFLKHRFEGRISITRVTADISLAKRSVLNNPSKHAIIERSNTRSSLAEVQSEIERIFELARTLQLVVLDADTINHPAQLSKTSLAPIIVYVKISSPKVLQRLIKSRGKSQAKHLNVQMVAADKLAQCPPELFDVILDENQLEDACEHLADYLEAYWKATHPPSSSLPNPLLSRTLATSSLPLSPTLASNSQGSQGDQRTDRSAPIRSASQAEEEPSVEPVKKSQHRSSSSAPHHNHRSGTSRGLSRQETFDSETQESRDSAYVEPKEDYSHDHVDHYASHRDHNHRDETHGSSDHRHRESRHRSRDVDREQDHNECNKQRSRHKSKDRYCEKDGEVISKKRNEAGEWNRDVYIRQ
# T2 sequence (P54289 25-956 partner limits assumed): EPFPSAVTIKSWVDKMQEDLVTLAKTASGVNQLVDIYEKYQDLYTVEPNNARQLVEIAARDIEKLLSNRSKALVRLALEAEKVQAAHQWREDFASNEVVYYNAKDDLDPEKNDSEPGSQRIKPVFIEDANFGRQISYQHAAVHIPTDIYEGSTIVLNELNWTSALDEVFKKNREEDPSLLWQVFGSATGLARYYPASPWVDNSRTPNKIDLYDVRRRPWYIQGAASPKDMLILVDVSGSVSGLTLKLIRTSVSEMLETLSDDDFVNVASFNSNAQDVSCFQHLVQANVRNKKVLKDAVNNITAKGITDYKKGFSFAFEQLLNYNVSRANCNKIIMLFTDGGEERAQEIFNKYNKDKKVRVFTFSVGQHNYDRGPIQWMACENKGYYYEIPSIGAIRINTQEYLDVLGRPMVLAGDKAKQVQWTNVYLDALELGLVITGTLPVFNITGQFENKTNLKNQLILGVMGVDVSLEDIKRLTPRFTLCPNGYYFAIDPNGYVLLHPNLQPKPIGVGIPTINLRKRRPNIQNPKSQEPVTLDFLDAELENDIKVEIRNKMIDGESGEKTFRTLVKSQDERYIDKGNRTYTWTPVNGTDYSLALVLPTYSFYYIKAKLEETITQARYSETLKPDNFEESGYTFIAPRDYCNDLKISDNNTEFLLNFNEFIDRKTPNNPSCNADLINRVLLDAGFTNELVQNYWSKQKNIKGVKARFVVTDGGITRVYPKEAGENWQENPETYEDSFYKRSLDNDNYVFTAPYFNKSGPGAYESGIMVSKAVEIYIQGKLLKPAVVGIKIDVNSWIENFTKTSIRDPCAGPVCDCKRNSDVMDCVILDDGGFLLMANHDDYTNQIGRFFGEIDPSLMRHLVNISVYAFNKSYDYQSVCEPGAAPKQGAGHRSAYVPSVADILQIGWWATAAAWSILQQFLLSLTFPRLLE
# T2 sequence (P54289 957-1103 partner limits assumed): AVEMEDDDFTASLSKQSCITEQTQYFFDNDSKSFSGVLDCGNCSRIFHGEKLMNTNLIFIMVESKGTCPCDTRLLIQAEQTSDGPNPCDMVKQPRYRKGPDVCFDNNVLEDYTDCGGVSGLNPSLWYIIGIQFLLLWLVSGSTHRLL
# Description: Binding/functional studies were carried out commercially in Eurofins Laboratories (Poitiers, France) and Eurofins Panlabs Discovery Services Taiwan, Ltd. (New Taipei City, Taiwan) using testing procedures that were reported previously (for details see Table S2).
# Table S2. Radioligand binding and functional assays. […]
# TRPV1 (VR1) (h) (antagonist effect)
# Cav1.2 (L-type) (h) calcium ion channel cell-based antagonist calcium flux assay
# Assays were performed commercially in Eurofins Laboratories (Poitiers, France) or Eurofins Panlabs Discovery
# Services Taiwan, Ltd. (New Taipei City, Taiwan). […]
# [3] = system: scPTZ-induced seizures in mice; test: Subcutaneous pentylenetetrazole (scPTZ) seizure test; assay type: in vivo; settings: 100 mg/kg i.p., 0.5 h; for protection in scPTZ screening: four mice
# How it was run: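 Adult male Albino Swiss mice (22-26 g) received compounds suspended in 1% aqueous Tween 80, single i.p. injection at 10 mL/kg. ED50 from 3–4 dose groups of eight mice; protective index computed as TD50 (chimney or rotarod) divided by ED50.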
# [4] = Metabolic stability in human liver microsomes (HLMs); settings: for remaining at 2 h: human, human liver microsomes; for Metabolic Pathway: metabolites after 120 min incubation with HLMs
# [5] = system: ivPTZ seizure threshold in mice; test: Timed ivPTZ seizure threshold test; assay type: in vivo; settings: 50 mg/kg i.p., 0.5 h before test; for increase of threshold for generalized clonus with loss of righting reflex / increase of threshold for the first myoclonic twitch: vs control
# Description: In studies assessing the acute effect of compounds 53 and 60 on the ivPTZ seizure threshold and neuromuscular strength, compounds 53 and 60 was suspended in a 1% solution of Tween 80 and administered i.p., at a dose of 10 mL/kg body weight. Each experimental group consisted of 9–12 animals (ivPTZ seizure threshold test) or 9−10 animals (grip strength test). The timed ivPTZ test was employed to evaluate the acute effect of compounds 53 and 60 on the seizure thresholds for (1) the first myoclonic twitch, (2) generalized clonic seizure with loss of righting reflex, and (3) forelimb tonus. The experimental procedure of the timed ivPTZ test was described in detail elsewhere. The acute effect of compounds 53 and 60 on neuromuscular strength was quantified using the grip-strength apparatus (BIOSEB, Chaville, France) according to the method that is described elsewhere. The results are depicted in Figure 2 (ivPTZ seizure threshold test, see Section 3 Results and Discussion) and Figure 3 (grip strength test, see Section 3 Results and Discussion).
# The timed ivPTZ test was employed to further evaluate the effects of compounds 53 and 60 on seizure susceptibility in mice. The ivPTZ seizure test is an extremely sensitive method for assessing seizure thresholds in rodents. In this method, the threshold PTZ dose for several seizure endpoints was determined.
# Figure 2 Acute effects of 53 and 60 on the threshold for the first myoclonic twitch (A), generalized clonus (B), and forelimb tonus (C) in the ivPTZ seizure threshold test in mice. Compounds 53 and 60 were administered i.p. 0.5 h before the seizure test. Control animals received vehicle only. Each experimental group consisted of 9–12 animals. Each bar represents the mean (mg/kg PTZ) + SEM. ** p < 0.01, *** p < 0.001, **** p < 0.0001 vs. the control group (Student’s t-test).
# hepatoma HepG2 cell line = test: Hepatotoxicity, HepG2 viability (MTS); assay type: cell-based; settings: 72 h treatment
# Description: Figure 7 The effect of 53, 60, and 62, cytostatic drug doxorubicin (DX) and the mitochondrial toxin CCCP on the hepatoma HepG2 cell line viability after 72 h of incubation at 37 °C, 5% CO2. The data were analyzed with one-way ANOVA, followed by Bonferroni’s Comparison Test (Graph Pad Prism 8.0.1 software, San Diego, CA, USA)): ** p < 0.01, **** p < 0.0001 vs. negative control (DMSO 1% in growth media).
# Na+ channel (site 2) = Na+ channel (site 2) radioligand binding; settings: rat cerebral cortex
# [6] = four mice, read-out: protection in 6 Hz (32 mA) screening
# [7] = read-out: 6 Hz (32 mA) screening: number of mice protected/number of mice tested (converted)
IC50 (TRPV1 (VR1) (h)) [µM],Kb (TRPV1 (VR1) (h)) [µM],remaining at 2 h [4] [%],"% Inhibition of Control Specific Binding, Na+ channel (site 2) (Na+ channel (site 2); 10 µM)","% Inhibition of Control Specific Binding, Na+ channel (site 2) (Na+ channel (site 2); 100 µM) [%]",SMILES,"responders at 100 mg/kg [1, 6] [%]","responders at 100 mg/kg [1, 7] [%]",ED50 [1] [mg/kg],inhibition at 10 µM [2] [%],scPTZ screening: number of mice protected/number of mice tested [3],protection in scPTZ screening [3] [%],Metabolic Pathway [4],effect on threshold for forelimb tonus [5],increase of threshold for generalized clonus with loss of righting reflex [5],increase of threshold for the first myoclonic twitch [5],effect on HepG2 cell viability (hepatotoxicity) (hepatoma HepG2 cell line)
13,1.7,95.6,17.4%,75.5,"CC(=O)NC(C(=O)N1CCN(c2cccc(C(F)(F)F)c2)CC1)c1ccccc1 (stereo not shown) [Compound 53, N-(2-oxo-1-phenyl-2-(4-(3-(trifluoromethyl)phenyl)piperazin-1-yl)ethyl)acetamide]",100,100,29.9,55,1/4,25,hydroxylation,"did not, however, produce any significant effect",~ 40%,~ 50%,observed only at 100 µM
11,1.5,88.8,37.0 (10) %,–,"CC(=O)NC(C(=O)N1CCN(c2cccc(OC(F)(F)F)c2)CC1)c1ccccc1 (stereo not shown) [Compound 60, N-(2-oxo-1-phenyl-2-(4-(3-(trifluoromethoxy)phenyl)piperazin-1-yl)ethyl)acetamide]",100,100,24.6,31,1/4,25,hydroxylation; also recorded: dehydrogenation,devoid of any significant effects,devoid of any significant effects,~ 20%,observed only at 100 µM
